Measured values from US12569453B2, “Use of tapinarof for the treatment of atopic dermatitis” (Dermavant Sciences GmbH, priority 2018, dated 2026).
Marks after values point to notes of the source that are not given here.

System: adult subjects with psoriasis
Assay: Phase II/2b clinical study in plaque psoriasis: efficacy and patient-reported outcomes
Format: in vivo, human
Conditions: for PGA response rate (primary endpoint): interim analysis; for subjects with ≥4 improvement in pruritus NRS score from baseline: baseline NRS score ≥4; for PGA response rate (PGA 0 or 1 and ≥2-grade improvement): mITT OC; for PASI50 response rate / PASI75 response rate / PASI90 response rate: Week 16; for PGA treatment success: Week 16 (4 weeks after end of treatment)
Source text: This was a multicenter (United States, Canada, and Japan), randomized, double-blind (Sponsor-unblind), vehicle-controlled, 6-arm, parallel-group, dose-finding study in adult subjects with psoriasis. Certain study personnel at each site were unblinded to dose-frequency.
The study consisted of 3 periods: up to 4 weeks Screening, 12 weeks double-blind treatment, and 4 weeks post-treatment follow-up. Study visits occurred at Screening; Baseline; weeks 1, 2, 4, 8, and 12 during the treatment period; and 2 and 4 weeks after the last application of study treatment (i.e., at weeks 14 and 16). Additional visits could occur, as needed, for early withdrawals or to follow-up on any skin reactions or ongoing AEs. A subject's total duration of study participation was approximately 16 to 20 weeks.
Two concentrations of Tapinarof cream (0.5% and 1%) and a vehicle control were evaluated following application to all psoriasis lesions (except on the scalp) once (QD) or twice daily (BID) for 12 weeks. There were no planned dose adjustments during the study.
Efficacy was assessed by using a 5-point static Physician Global Assessment (PGA) (0-4 scale), the Psoriasis Area and Severity Index (PASI), % BSA involvement, target lesion assessments (erythema, scaling, and plaque thickness), and subject-reported itch/pruritus severity using a numeric rating scale (NRS) (from the Psoriasis Symptom Diary [PSD]). Additional subject-reported outcomes included the daily PSD (which also contained severity and bother items for 3 additional symptoms). Investigator global impression of change item (assessing change in severity of psoriasis symptoms) and 2 subject global impressions of change items (assessing change in severity of psoriasis symptoms and change in severity of itch/pruritus) were also assessed.
Physician Global Assessment: The PGA is a clinical tool for assessing the current state/severity of a subject's psoriasis. It is a static 5-point morphological assessment of overall disease severity, as determined by the investigator, using the clinical characteristics of erythema, plaque thickness, and scaling as guidelines. At each specified time point, the PGA is made without reference to previous scores. Variations of the PGA are frequently used in clinical studies because it is a simple assessment that is more similar to the assessments actually used in clinical practice. Scoring system ranges from 0 (=Clear) to 4 (=Severe).
Psoriasis Area and Severity Index: The PASI scoring system is a widely-used standard clinical tool for assessing the severity of psoriasis that takes into account the overall severity of erythema (redness), thickness (induration), and scale, as well as the extent of BSA affected with psoriasis. The 3 clinical signs are each graded on a 5 point scale (0 to 4) and the % BSA affected is scored on a 7-point scale (0 to 6) for each of the 4 specified body regions (head, upper extremities, trunk, and lower extremities). The individual scores are multiplied by a weighted factor for each body region; the sum of these scores gives the overall PASI score. Higher scores indicate more severe disease. PASI is a static assessment made without reference to previous scores.
Body Surface Area: The extent of BSA affected by psoriasis is a general indicator of disease severity and was measured throughout the study. The extent of BSA to which study treatment was applied was also recorded. For the purpose of approximate clinical estimation, the total palmar surface of the palm plus 5 digits was assumed to be approximately equivalent to 1% BSA.
Target Lesion Grading: A single target lesion was selected at Baseline to assess efficacy in treating a discrete area rather than an overall average of all areas. For that lesion, the severity of erythema, scaling, and plaque thickness was assessed by the investigator on a 5-point scale ranging from “0=none” to “4=severe”. […]

In the case of CC(C)c1c(O)cc(/C=C/c2ccccc2)cc1O [Tapinarof, 3,5-Dihydroxy-4-isopropyl-trans-stilbene], the “Target lesion Erythema, percent change from Baseline (Mean)” value (from here on “Target lesion Erythema, percent change”) (1% BID, Early WD) is reported as −46.67%, the “Target lesion Plaque thickness, percent change from Baseline (Mean)” value (1% BID, Early WD) is reported as −46.67% and the “Target lesion Scaling, percent change from Baseline (Mean)” value (shortened to “Target lesion Scaling, percent change”) (1% BID, Early WD) is reported as −52.50%. The “PGA response at Week 12” value (1% BID, Fitzpatrick skin type I/II) was 60%, the “PGA response at Week 12” value (1% BID, Fitzpatrick skin type III/IV) was 54% and the “PGA response at Week 12” value (1% BID, Fitzpatrick skin type V/VI) was 100%. The “Target lesion Erythema, percent change” value (1% BID, Follow-up Week 14) was −65.42%, the “Target lesion Plaque thickness, percent change from Baseline (Mean)” value (1% BID, Follow-up Week 14) was −67.50% and the “Target lesion Scaling, percent change” value (1% BID, Follow-up Week 14) was −67.50%. The “Target lesion Erythema, percent change” value (1% BID, Follow-up/Week 16) was −78.33%, the “Target lesion Plaque thickness, percent change from Baseline (Mean)” value (1% BID, Follow-up/Week 16) was −76.67% and the “Target lesion Scaling, percent change” value (1% BID, Follow-up/Week 16) was −77.50%. The “Target lesion Erythema, percent change” value (1% BID, Week 1) was −12.50%, the “Target lesion Plaque thickness, percent change from Baseline (Mean)” value (1% BID, Week 1) was −18.75% and the “Target lesion Scaling, percent change” value (1% BID, Week 1) was −25.00%. For the same compound, the “Target lesion Erythema, percent change” value (1% BID, Week 2) was −25.52%, the “Target lesion Plaque thickness, percent change from Baseline (Mean)” value (1% BID, Week 2) was −33.33% and the “Target lesion Scaling, percent change” value (1% BID, Week 2) was −32.55%. The “Target lesion Erythema, percent change” value (1% BID, Week 4) was −44.94%, the “Target lesion Plaque thickness, percent change from Baseline (Mean)” value (1% BID, Week 4) was −48.51% and the “Target lesion Scaling, percent change” value (1% BID, Week 4) was −55.65%. The “Target lesion Erythema, percent change” value (1% BID, Week 8) was −62.50%, the “Target lesion Plaque thickness, percent change from Baseline (Mean)” value (1% BID, Week 8) was −62.82% and the “Target lesion Scaling, percent change” value (1% BID, Week 8) was −70.51%. For the same compound, the “PGA response rate (primary endpoint)” value (1% BID, Week 8) was 42%, the “Mean change in nine items of the PSD from baseline” value (1% BID, Week 12) was −4.5^‡ and the “Mean change in total target lesion grading scores from baseline” value (1% BID, Week 12) was −6.9*. The “Target lesion Erythema, percent change” value (1% BID, Week 12) was −77.65%, the “Target lesion Plaque thickness, percent change from Baseline (Mean)” value (1% BID, Week 12) was −81.82% and the “Target lesion Scaling, percent change” value (1% BID, Week 12) was −78.79%. The “absolute mean change in percent BSA affected from baseline” value (1% BID, Week 12) was 4.9, the “decrease in total target lesion grading scores (mean change)” value (1% BID, Week 12) was 6.9 and the “subjects with ≥4 improvement in pruritus NRS score from baseline” value (1% BID, Week 12) was 55%. For the same compound, the “PGA response rate (PGA 0 or 1 and ≥2-grade improvement)” value (1% BID, Week 12) was 65%, the PASI50 response rate (1% BID) was 83% and the PASI75 response rate (1% BID) was 63%. For the same compound, the PASI90 response rate (1% BID) was 38%, the PGA treatment success (1% BID) was 58% and the “subjects with severity of pruritus symptoms rated very/moderately improved” value (1% BID, baseline to Week 12) was 70%. The “PGA response at Week 12” value (1% BID, psoriasis duration 5 years to <10 years) was 67%, the “PGA response at Week 12” value (1% BID, psoriasis duration 6 months to <5 years) was 50% and the “PGA response at Week 12” value (1% BID, psoriasis duration ≥10 years) was 73%. The “PGA response at Week 12” value (1% BID, ≥10% BSA affected at baseline) was 64%, the “PASI75 responders who maintained response from Week 12 to Week 16” value (1% QD) was 93% and the “PGA responders who maintained response from Week 12 to Week 16” value (1% QD) was 86%. For the same compound, the “difference in PGA response rate, active minus vehicle” value (1% QD-vehicle QD, Week 12) was 51.0%, the “PGA response at Week 12” value (1% QD, 1 to <10% BSA affected at baseline) was 60% and the “Target lesion Erythema, percent change” value (1% QD, Early WD) was −47.62%. The “Target lesion Plaque thickness, percent change from Baseline (Mean)” value (1% QD, Early WD) was −60.71%, the “Target lesion Scaling, percent change” value (1% QD, Early WD) was −57.14% and the “PGA response at Week 12” value (1% QD, Fitzpatrick skin type I/II) was 67%. For the same compound, the “PGA response at Week 12” value (1% QD, Fitzpatrick skin type III/IV) was 47%, the “PGA response at Week 12” value (1% QD, Fitzpatrick skin type V/VI) was 75% and the “Target lesion Erythema, percent change” value (1% QD, Follow-up Week 14) was −70.65%. For the same compound, the “Target lesion Plaque thickness, percent change from Baseline (Mean)” value (1% QD, Follow-up Week 14) was −70.29%, the “Target lesion Scaling, percent change” value (1% QD, Follow-up Week 14) was −67.39% and the “Target lesion Erythema, percent change” value (1% QD, Follow-up/Week 16) was −74.24%. The “Target lesion Plaque thickness, percent change from Baseline (Mean)” value (1% QD, Follow-up/Week 16) was −65.91%, the “Target lesion Scaling, percent change” value (1% QD, Follow-up/Week 16) was −71.59% and the “Target lesion Erythema, percent change” value (1% QD, Week 1) was −17.14%. For the same compound, the “Target lesion Plaque thickness, percent change from Baseline (Mean)” value (1% QD, Week 1) was −13.10%, the “Target lesion Scaling, percent change” value (1% QD, Week 1) was −24.29% and the “Target lesion Erythema, percent change” value (1% QD, Week 2) was −35.68%. For the same compound, the “Target lesion Plaque thickness, percent change from Baseline (Mean)” value (1% QD, Week 2) was −30.47%, the “Target lesion Scaling, percent change” value (1% QD, Week 2) was −32.81% and the “Target lesion Erythema, percent change” value (1% QD, Week 4) was −51.88%. For the same compound, the “Target lesion Plaque thickness, percent change from Baseline (Mean)” value (1% QD, Week 4) was −47.04%, the “Target lesion Scaling, percent change” value (1% QD, Week 4) was −53.49% and the “Target lesion Erythema, percent change” value (1% QD, Week 8) was −65.06%. For the same compound, the “Target lesion Plaque thickness, percent change from Baseline (Mean)” value (1% QD, Week 8) was −60.90%, the “Target lesion Scaling, percent change” value (1% QD, Week 8) was −71.79% and the “PGA response rate (primary endpoint)” value (1% QD, Week 8) was 32%. For the same compound, the “Mean change in nine items of the PSD from baseline” value (1% QD, Week 12) was −4.0^†, the “Mean change in total target lesion grading scores from baseline” value (1% QD, Week 12) was −7.0* and the “Target lesion Erythema, percent change” value (1% QD, Week 12) was −81.88%. The “Target lesion Plaque thickness, percent change from Baseline (Mean)” value (1% QD, Week 12) was −70.29%, the “Target lesion Scaling, percent change” value (1% QD, Week 12) was −83.33% and the “absolute mean change in percent BSA affected from baseline” value (1% QD, Week 12) was 4.3. For the same compound, the “decrease in total target lesion grading scores (mean change)” value (1% QD, Week 12) was 7.0, the “subjects with ≥4 improvement in pruritus NRS score from baseline” value (1% QD, Week 12) was 73% and the “PGA response rate (PGA 0 or 1 and ≥2-grade improvement)” value (1% QD, Week 12) was 56%. The PASI50 response rate (1% QD) was 77%, the PASI75 response rate (1% QD) was 58% and the PASI90 response rate (1% QD) was 42%. The PGA treatment success (1% QD) was 54%, the “PGA response at Week 12” value (1% QD, psoriasis duration 5 years to <10 years) was 50% and the “PGA response at Week 12” value (1% QD, psoriasis duration 6 months to <5 years) was 80%. For the same compound, the “PGA response at Week 12” value (1% QD, psoriasis duration ≥10 years) was 50%, the “PGA response at Week 12” value (1% QD, ≥10% BSA affected at baseline) was 40% and the “subjects rating itch symptoms very improved or moderately improved” value (1% and 0.5% concentration groups, Week 12) was 70-77%. The “subjects rated by investigators as very improved or moderately improved” value (1% concentration groups, Week 12) was > 80% and the “subjects rating pruritus symptoms very improved or moderately improved” value (1% groups, Week 12) was 70-76%.
